From US20140205566A1, “CYCLIC NUCLEUOSIDE DERIVATIVES AND USES THEREOF” (NOVARTIS AG, priority 2012, published 2014) come the findings set out here.

SMILES strings stand for the structures.

Data set [1] can be described thus: Liver S9 stability determination. The data set is classed as in vitro ADME. The note with it: pooled liver S9 fraction; human liver S9 fraction, 1 μM compound, 37° C., up to 120 mins; read-out: liver S9 t1/2. The source says:
The liver is the main organ of metabolism and contains a high concentration of drug metabolizing enzymes. Metabolic clearance, particularly hepatic, is one of the main determinants affecting systemic drug exposure following both oral and i.v. administration. To assess the ability of the compounds of the invention to reach a systemic circulation, the hepatic S9 fraction was chosen to test for stability of the compounds. Hepatic S9 fraction was obtained following centrifugation of homogenized liver tissue at 9,000 g. The hepatic S9 fraction is composed of both microsomal and cytosolic fractions and contains all the enzymes contained in microsomes plus additional phase I and phase II cytosolic enzymes.
Stock solutions of each tested compound (100 μM) were prepared in methanol by two subsequent 1:10 dilutions from 10 mM DMSO drug solutions, the final assay concentration was 1 μM. Frozen pooled liver S9 fraction was thawed from −20° C. and diluted in phosphate buffer (with and without NADPH) which was pre-warmed at 37° C. for 10 minutes. The reaction was initiated by addition of compound. Manual sample plates were incubated on a Thermo Max Q 2000 shaker placed in a temperature controlled Sartorius Certomat H hood set at 37° C. Sequential samples were removed at designated timepoints (0, 5, 15, 30, 60 and 120 mins) and quenched with 4 volumes of ice cold acetonitrile (containing internal standard, diazepam), centrifuged and supernatants reconstituted in water (acetonitrile:water, 50:50% v/v). Samples were then analyzed by LCMS/MS or LC-UV to assess parent depletion. In vitro half-life (t1/2) is calculated based on the rate of disappearance of compound from the reaction mixture at incubation timepoints up to 2 hours.

Data set [2] is described as follows: Stability in liver microsomes. It is filed as in vitro ADME. The note with it: human, read-out: liver microsomes t1/2. (Liver microsomes are vesicles of endoplasmic reticulum, rich in cytochrome P450 enzymes.)
Data set [3] is described as follows: CCK8 cytotoxicity assay in HepG2 cells. It is filed as cell-based. As to conditions: human, CCK-8. The protocol:
HepG2 cells were trypsinized, washed, counted and diluted to 1.6×10^4 cells/ml in DMEM-W/O Glucose, supplemented with 10% Fetal bovine serum (FBS), 1% Penicillin/Streptomycin, 2 mM HEPES, 1 mM Sodium Pyruvate, 10 mM Galactose & 2 mM Glutamine. 25 μl of the media containing 400 cells per well were dispensed in clear 384-well tissue culture plate and incubated at room temperature for 30 minutes. The plate was then transferred and placed at 37° C., 5% CO2 humidified incubator overnight. On the next day, serial-diluted compound plates were prepared and 125 nl of compounds at various concentrations were then dispensed into the tissue culture well (200× dilution). The plates were then transferred to 37° C., 5% CO2 humidified incubator for additional 96 hours. Cytotoxicity was measured by CCK-8 assay. Briefly, CCK-8 was thawed on bench top and diluted 2.5× with the growth media. 35 ul of the pre-diluted CCK-8 was then introduced into each well and the plates were then further incubated in 37° C., 5% CO2 humidified incubator for 3 hours. The absorbance was read by Envision at 450 nm. Dose response curves were calculated as in the previous section. The CC50 is estimated as the concentration of the compound which will inhibit 50% of the signal. A positive control (puromycin) was used to ensure the quality of the data.
(In general: Formazan colour is commonly taken as a measure of viable cells.)

The nature of data set [4]: Nucleoside triphosphate concentrations in dog PBMC after oral administration. It is filed as in vivo. As to conditions: oral administration of 3 mg/Kg. As for the experimental part: Male beagle dogs were administered a single intravenous (0.5 mg/kg) or oral dose (3-15 mg/kg) of a representative compound of the present invention. Blood samples (3.5 mL) were collected at 0, 0.0833 (IV only), 0.25, 0.5, 1, 2, 4, 6, 8, 24, 48, 72 hours post-dose through the jugular vein. K2EDTA was used as the anticoagulant. Plasma was prepared from an aliquot of 0.5 mL of blood and assayed for the compound and metabolites by tandem mass spectrometric method (LC/MS-MS). PBMC was isolated from 3 mL of blood and assayed for nucleoside triphosphate (NTP) levels by LC/MS-MS.
Three mL of blood was collected from the dog into EDTA vacutainers and mixed on a rocker & immediately placed on ice. The blood was transferred to a 15 mL falcon tube. Three mL PBS (w/o Ca/Mg) and 3 mL 6% dextran (in PBS) were added and was left for 30 minutes on ice to allow the red blood cells to sediment. Blood supernatant (5-7 mL) was layered on top of 5 mL of Mammalian-Lympholyte in 15-mL conical blue-top tube, centrifuged for 20 minutes at 1500 g at 4° C.
After centrifugation, the well-defined lymphocyte (PBMC) layer at the interface was carefully removed to a new 15-mL centrifuge tube and was diluted to a total volume of 15 mL to reduce the density of the solution. The content was centrifuged at 800 g for 10 minutes at 4° C. to pellet the PBMC. The pellet was re-suspended in 1 mL of PBS and further diluted to 10 mL, followed by centrifugation at 800 g for 10 minutes at 4° C. to pellet the PBMC. The pellet was re-suspended in 1 mL PBS and followed by 5 mL ice cold de-ionized water, mixed for 30 seconds by inverting to lyse the remaining red blood cells. Five ml of ice cold 2×PBS was added to bring the mixture back to isotonicity. The mixture was centrifuged at 800 g for 10 minutes at 4° C. to pellet the cells and discard the supernatant. The resulting pellet was re-suspended in 1 mL PBS. An aliquot of 10 μL of the pellet suspension was diluted into 90 μL of PBS for cell count. An aliquot of each sample was transferred to a fresh Eppendorf tubes and centrifuged at 5000 rpm for 5 min at 4° C. The pellets were ready for bioanalysis.
Concentrations of nucleoside triphosphate in PBMC were determined by tandem mass spectrometric method (LC/MS/MS). Chromatography was conducted on ACQUITY UPLC HSS T3 Column, 100 Å, 1.8 μm, 2.1 mm×50 mm using a mobile phase gradient consisting of (A) 2 mM ammonium dihydrogen-phosphate and 5 mM Hexylamine in (B) Acetonitrile, 8% B to 22% B in 3.2 minutes at a flow rate of 0.3 mL/minute. The mass spectrometer was operated in the Multiple Reaction Monitoring (MRM) using negative ionization mode. An internal standard, Carbosynth was used in the construction of standard calibration curves in blank PBMC obtained commercially. The nucleoside triphosphate was monitored at m/z 538.1>158.9 and the internal standard was monitored at 536.1>158.9. The dynamic range was 50, 100, 300, 1000, 3000, 10000, 30000 fmole/3×10^6 PBMC.

On to `CCOC(=O)[C@H](C)N[P@@]1(=O)OC[C@H]2O[C@@H](n3cnc4c(OCC)nc(N)nc43)[C@](C)(F)[C@@H]2O1` [Example 1, (S)-ethyl 2-(((2R,4aR,6R,7R,7aR)-6-(2-amino-6-ethoxy-9H-purin-9-yl)-7-fluoro-7-methyl-2-oxidotetrahydro-4H-furo[3,2-d][1,3,2]dioxaphosphinin-2-yl)amino)propanoate], for which, in data set [1], the half-life at 1 μM was found to be 76 min. The half-life in data set [2] came to 47 min. The CC50 (in general, the concentration that lowers cell viability or growth by half) at 96 h in data set [3] was more than 50 µM. For the same molecule, in data set [4], the “NTP AUC0-24h” value was found to be 36900 ± 11358 fmol/3 million cells and the “NTP Cmax” value turned out to be 2331 ± 1181 fmol/3 million cells.

In the case of `CCOc1nc(N)nc2c1ncn2[C@@H]1O[C@@H]2CO[P@](=O)(N[C@@H](C)C(=O)OC)O[C@H]2[C@@]1(C)F` [Example 3, (S)-methyl 2-(((2R,4aR,6R,7R,7aR)-6-(2-amino-6-ethoxy-9H-purin-9-yl)-7-fluoro-7-methyl-2-oxidotetrahydro-4H-furo[3,2-d][1,3,2]dioxaphosphinin-2-yl)amino)propanoate], the half-life at 1 μM in data set [1] was more than 120 min. Besides, the half-life in data set [2] worked out at 57 min. Besides, the CC50 at 96 h in data set [3] was more than 50 µM. Moreover, in data set [4], the “NTP AUC0-24h” value was found to be 10457 ± 2983 fmol/3 million cells and the “NTP Cmax” value was found to be 662 ± 228 fmol/3 million cells.

For `CCOc1nc(N)nc2c1ncn2[C@@H]1O[C@@H]2CO[P@@](=O)(N[C@@H](C)C(=O)OC(C)C)O[C@H]2[C@@]1(C)F` [Example 2, (S)-isopropyl 2-(((2S,4aR,6R,7R,7aR)-6-(2-amino-6-ethoxy-9H-purin-9-yl)-7-fluoro-7-methyl-2-oxidotetrahydro-4H-furo[3,2-d][1,3,2]dioxaphosphinin-2-yl)amino)propanoate], the half-life at 1 μM in data set [1] came out at 36 min. Besides, the half-life in data set [2] was 32 min. In addition, the CC50 at 96 h in data set [3] is more than 50 µM. Moreover, in data set [4], the “NTP AUC0-24h” value was 7218 ± 5117 fmol/3 million cells and the “NTP Cmax” value is recorded as 618 ± 308 fmol/3 million cells.

For the molecule `CCOc1nc(N)nc2c1ncn2[C@@H]1O[C@@H]2CO[P@@](=O)(N[C@H](C)C(=O)OC(C)C)O[C@H]2[C@@]1(C)F` [Example 6, (R)-isopropyl 2-(((2S,4aR,6R,7R,7aR)-6-(2-amino-6-ethoxy-9H-purin-9-yl)-7-fluoro-7-methyl-2-oxidotetrahydro-4H-furo[3,2-d][1,3,2]dioxaphosphinin-2-yl)amino)propanoate], in data set [1], the half-life at 1 μM is more than 120 min. Further, the CC50 at 96 h in data set [3] is more than 50 µM. Moreover, in data set [4], the “NTP AUC0-24h” value was found to be 11049 ± 2190 fmol/3 million cells and the “NTP Cmax” value is given as 777 ± 45.2 fmol/3 million cells.
